According to patent publication US12522594B2, “2-heteroaryl-3-oxo-2,3-dihydropyridazine-4-carboxamides for the treatment of cancer” (Deutsches Krebsforschungszentrum, priority 2017, dated 2026):

Columns and labels:
Format in all cases: cell-based
AHR [1] = target: T1, AHR (Homo sapiens, UniProt P35869); assay: In vitro assay 3: AHR-regulated CYP1A1 expression in human cell line (U937, qPCR, KA stimulation); conditions: U937 cells, 200 uM KA, 6 hours, CYP1A1 expression by qPCR; read-out: Assay 3: Hum CYP1A1 Antagonism IC50
T1 sequence (P35869 11-848): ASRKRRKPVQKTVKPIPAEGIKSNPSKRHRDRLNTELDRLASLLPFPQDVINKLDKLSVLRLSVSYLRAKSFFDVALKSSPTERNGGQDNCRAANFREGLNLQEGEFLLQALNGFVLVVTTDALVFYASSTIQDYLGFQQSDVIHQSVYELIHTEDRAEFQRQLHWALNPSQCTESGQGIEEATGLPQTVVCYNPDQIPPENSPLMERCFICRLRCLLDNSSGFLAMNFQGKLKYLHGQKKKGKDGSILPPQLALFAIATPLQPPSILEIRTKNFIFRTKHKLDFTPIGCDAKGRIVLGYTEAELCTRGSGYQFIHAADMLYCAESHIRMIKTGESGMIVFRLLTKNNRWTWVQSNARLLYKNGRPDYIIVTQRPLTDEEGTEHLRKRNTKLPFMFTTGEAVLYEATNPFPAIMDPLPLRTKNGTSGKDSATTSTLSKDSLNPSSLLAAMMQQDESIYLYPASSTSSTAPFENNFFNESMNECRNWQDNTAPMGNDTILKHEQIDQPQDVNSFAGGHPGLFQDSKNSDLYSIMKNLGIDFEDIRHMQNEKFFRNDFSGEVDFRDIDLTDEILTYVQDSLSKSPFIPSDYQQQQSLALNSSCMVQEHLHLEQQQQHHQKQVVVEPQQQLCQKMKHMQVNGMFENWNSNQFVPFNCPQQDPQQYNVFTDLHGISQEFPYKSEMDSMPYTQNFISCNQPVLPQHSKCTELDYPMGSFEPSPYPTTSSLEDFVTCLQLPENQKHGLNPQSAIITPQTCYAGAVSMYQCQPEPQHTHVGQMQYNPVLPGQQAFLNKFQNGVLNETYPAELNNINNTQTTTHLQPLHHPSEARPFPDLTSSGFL
Method: In Vitro Assay 3: AHR-Regulated CYP1A1 Expression in Human Cell Line
To assess the AHR inhibitory activity of the substances described in this application, the ability thereof to antagonise ligand-induced AHR gene regulation in a dose-dependent manner was quantified. For this purpose, quantitative PCR analysis was used to determine expression of the AHR-regulated gene CYP1A1 in a human monocytic U937 cell line upon stimulation with 200 uM KA in the presence and absence of AHR inhibitor. […] CYP1A1 expression was induced with 200 uM KA (positive control) in the presence or absence of the substances for 6 hours. Human U937 cells were typically incubated with eight different concentrations of the substances (1 nM, 3 nM, 10 nM, 30 nM, 100 nM, 300 nM, 1 uM and 3 uM) and analyzed in duplicate on the same microtitre plate. […] Unstimulated cells were used as the negative control. Taqman probes for human CYP1A1 (Hs01054797_g1) and human HPRT (Hs02800695_m1) were used to analyze fold expression of CYP1A1 of HPRT. Quantitation was performed on a Taqman SDS7900HT.

AHR [2] = target: T1, AHR; assay: In vitro assay 1: antagonism in human cell line (transactivation assay, U87 cells prestimulated with kynurenic acid, DRE firefly luciferase reporter); design: host or cells: U87 glioblastoma cells, stably transfected with DRE firefly luciferase and renilla reporter constructs; conditions: 150 uM kynurenic acid, 20 hours, read-out: Assay 1: AHR-luc Hum Antagonism IC50
Method in brief: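 U87 glioblastoma cells with endogenous AHR, stably carrying a DRE-driven firefly luciferase reporter and a constitutive renilla reporter. Cells prestimulated with the AHR agonist kynurenic acid before compound addition; data normalized to positive and negative controls.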

AHR [3] = target: T1, AHR; assay: In vitro assay 2: agonism in human cell line (transactivation assay, U87 cells, DRE firefly luciferase reporter); design: host or cells: U87 glioblastoma cells, stably transfected with DRE firefly luciferase and renilla reporter constructs; conditions: no kynurenic acid, 20 hours, read-out: Assay 2: AHR-luc Hum Agonism IC50
Method in brief: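 U87 glioblastoma cells with endogenous AHR, stably carrying DRE-driven firefly luciferase and constitutive renilla reporters. 300 uM kynurenic acid served as positive activation control; data normalized to positive and negative controls.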

| SMILES | IC50 (AHR [1]) [nM] | IC50 (AHR [2]) [nM] | IC50 (AHR [3]) [µM] |
| --- | --- | --- | --- |
| O=C(N[C@@H]1COC[C@@H]1O)c1cc(-c2ccc(C(F)(F)F)cc2)nn(-c2cccnc2)c1=O (single isomer, unassigned) [Example 229, (+)-N-cis-4-Hydroxytetra-hydrofuran-3-yl-3-oxo-2-(pyridin-3-yl)-6-[4-(trifluoromethyl)phenyl]-2,3-dihydropyridazine-4-carboxamide] | 12.2 | 7.09 | > 20 |
| Cn1cc(-n2nc(-c3ccc(C(F)(F)F)cc3)cc(C(=O)N[C@@H]3COC[C@@H]3O)c2=O)cn1 (single isomer, unassigned) [Example 231, (−)-N-cis-4-Hydroxytetra-hydrofuran-3-yl-2-(1-methyl-1H-pyrazol-4-yl)-3-oxo-6-[4-(trifluoromethyl)phenyl]-2,3-dihydropyridazine-4-carboxamide] | 9.93 | 7.89 | > 20 |
| Cn1cc(-n2nc(-c3ccc(C(F)F)cc3)cc(C(=O)N[C@@H]3COC[C@@H]3O)c2=O)cn1 (single isomer, unassigned) [Example 315, 6-[4-(Difluoromethyl)phenyl]-N-[(cis)-4-hydroxytetrahydro-furan-3-yl]-2-(1-methyl-1H-pyrazol-4-yl)-3-oxo-2,3-dihydropyridazine-4-carboxamide] | 11.9 | 15.9 | > 20 |
| Cn1cc(-n2nc(-c3ccc(Cl)cc3)cc(C(=O)NCC(O)C(F)(F)F)c2=O)cn1 (single isomer, unassigned; (+)) [Example 20, (+)-6-(4-Chlorophenyl)-2-(1-methyl-1H-pyrazol-4-yl)-3-oxo-N-(3,3,3-trifluoro-2-hydroxypropyl)-2,3-dihydropyridazine-4-carboxamide] | 63.1 | 26.7 | > 20 |
| O=C(NCC(O)C(F)(F)F)c1cc(-c2ccc(Cl)cc2)nn(-c2cccnc2)c1=O (single isomer, unassigned; (+)) [Example 90, (+)-6-(4-Chlorophenyl)-3-oxo-2-(pyridin-3-yl)-N-(3,3,3-trifluoro-2-hydroxypropyl)-2,3-dihydropyridazine-4-carboxamide] | 40.2 | 21.7 | > 20 |
| Cn1cc(-n2nc(-c3ccc(Cl)cc3)cc(C(=O)NCC(O)C(F)(F)F)c2=O)cn1 (single isomer, unassigned; (-)) [Example 19, (−)-6-(4-Chlorophenyl)-2-(1-methyl-1H-pyrazol-4-yl)-3-oxo-N-(3,3,3-trifluoro-2-hydroxypropyl)-2,3-dihydropyridazine-4-carboxamide] | 6.43 | 3.92 | > 20 |
| O=C(NCC(O)C(F)F)c1cc(-c2ccc(Cl)cc2)nn(-c2cccnc2)c1=O (single isomer, unassigned; (-)) [Example 87, (−)-6-(4-Chlorophenyl)-N-(3,3-difluoro-2-hydroxypropyl)-3-oxo-2-(pyridin-3-yl)-2,3-dihydropyridazine-4-carboxamide] | 21.5 | 29.6 | > 20 |
| O=C(NCC(O)C(F)(F)F)c1cc(-c2ccc(Cl)cc2)nn(-c2cccnc2)c1=O (single isomer, unassigned; (-)) [Example 89, (−)-6-(4-Chlorophenyl)-3-oxo-2-(pyridin-3-yl)-N-(3,3,3-trifluoro-2-hydroxypropyl)-2,3-dihydropyridazine-4-carboxamide] | 2.64 | 4.8 | > 20 |
| O=C(NC(CO)C1CC1)c1cc(-c2ccc(Cl)cc2)nn(-c2cccnc2)c1=O (single isomer, unassigned; (-)) [Example 92, (−)-6-(4-Chlorophenyl)-N-(1-cyclopropyl-2-hydroxyethyl)-3-oxo-2-(pyridin-3-yl)-2,3-dihydropyridazine-4-carboxamide] | 2.76 | 19 | > 20 |
| O=C(NCC(O)C(F)F)c1cc(-c2ccc(C(F)(F)F)cc2)nn(-c2cccnc2)c1=O (single isomer, unassigned; (-)) [Example 230, (−)-N-(3,3-Difluoro-2-hydroxypropyl)-3-oxo-2-(pyridin-3-yl)-6-[4-(trifluoromethyl)phenyl]-2,3-dihydropyridazine-4-carboxamide] | 10.4 | 7.57 | > 20 |
| CC(C)(O)C(NC(=O)c1cc(-c2ccc(C(F)(F)F)cc2)nn(-c2cccnc2)c1=O)C(F)(F)F (single isomer, unassigned; (-)) [Example 241, (−)-3-Oxo-2-(pyridin-3-yl)-N-(1,1,1-trifluoro-3-hydroxy-3-methylbutan-2-yl)-6-[4-(trifluoromethyl)phenyl]-2,3-dihydropyridazine-4-carboxamide] | 36.3 | 10.9 | > 20 |
| Cc1ccc(-c2cc(C(=O)NCC(O)C(F)(F)F)c(=O)n(-c3cnn(C)c3)n2)cc1 (single isomer, unassigned; enantiomer 1) [Example 11, (−)-6-(4-Methylphenyl)-2-(1-methyl-1H-pyrazol-4-yl)-3-oxo-N-(3,3,3-trifluoro-2-hydroxypropyl)-2,3-dihydropyridazine-4-carboxamide, Enantiomer 1] | 0.15 | 4.55 | > 20 |
| Cc1ccc(-c2cc(C(=O)NCC(O)C(F)F)c(=O)n(-c3cnn(C)c3)n2)cc1 (single isomer, unassigned; enantiomer 1) [Example 14, N-(3,3-Difluoro-2-hydroxypropyl)-6-(4-methylphenyl)-2-(1-methyl-1H-pyrazol-4-yl)-3-oxo-2,3-dihydropyridazine-4-carboxamide, Enantiomer 1] | 25.5 | 12.1 | > 20 |
| Cn1cc(-n2nc(-c3ccc(Cl)cc3)cc(C(=O)N[C@@H]3COC[C@@H]3O)c2=O)cn1 (single isomer, unassigned; enantiomer 1) [Example 44, 6-(4-Chlorophenyl)-N-[(cis)-4-hydroxytetrahydrofuran-3-yl]-2-(1-methyl-1H-pyrazol-4-yl)-3-oxo-2,3-dihydropyridazine-4-carboxamide, Enantiomer 1] | 9.43 | 11.6 | > 20 |
| O=C(N[C@H]1COC[C@H]1O)c1cc(-c2ccc(OC(F)(F)F)cc2)nn(-c2cccnc2)c1=O (single isomer, unassigned; enantiomer 1) [Example 158, N-[(cis)-4-Hydroxytetrahydrofuran-3-yl]-3-oxo-2-(pyridin-3-yl)-6-[4-(trifluoromethoxy)phenyl]-2,3-dihydropyridazine-4-carboxamide, Enantiomer 1] | 25.2 | 21.8 | > 20 |
| Cc1ccc(-c2cc(C(=O)NCC(O)C(F)F)c(=O)n(-c3cnn(C)c3)n2)cc1 (single isomer, unassigned; enantiomer 2) [Example 15, N-(3,3-Difluoro-2-hydroxypropyl)-6-(4-methylphenyl)-2-(1-methyl-1H-pyrazol-4-yl)-3-oxo-2,3-dihydropyridazine-4-carboxamide, Enantiomer 2] | 122 | 26.5 | > 20 |
